Results taken from the METLIN SMRT retention time set (Domingo-Almenara et al. 2019).

Test: gradient 5% acetonitrile 3 min, to 50% in 2 min, to 85% in 15 min, held 3 min, 100 µL/min
Conditions: column: Zorbax Extend-C18 2.1 x 50 mm; eluents: water / acetonitrile, 0.1% formic acid
Method in brief: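 Over 3 months, pure standards in mixtures of ~100 molecules were run by HPLC coupled to a quadrupole time-of-flight mass spectrometer in positive and negative ionization mode. The column was a Zorbax Extend-C18 (2.1 × 50 mm, 1.8 μm) at 100 μL/min, eluted with water and acetonitrile each holding 0.1% formic acid, with 40 μL dead and 900 μL dwell volumes. Retention time was determined from adduct peaks chosen by software and checked manually.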

| Structure (SMILES) | RP-LC retention time [s] |
| --- | --- |
| Cc1cccc(C)c1-n1ccn(Cc2nc(-c3ccccn3)no2)c(=O)c1=O | 695 |
| COc1ccc(N2CC(C(=O)N3CCC(C(=O)N4CCC(C(N)=O)CC4)CC3)CC2=O)cc1 (stereo not given) | 600 |
| Cn1nccc1-c1cccc(-c2noc(-c3ccc(F)cc3Cl)n2)c1 | 1190 |
| CCCNC(=O)Cc1cn(CC)c2ncccc12 | 611 |
| Cc1nc2cc(N3CCCC(C(=O)N4CCCCCC4)C3)cnc2nc1C (stereo not given) | 653 |
| CCC(=O)N1CCc2c(C(=O)NC(C)C)cccc21 | 687 |
| CCc1csc(-c2ccc(N3CCN(C(=O)c4ccsc4)CC3)nc2)n1 | 853 |
| COc1cc(C2CN(C(=O)c3ccc4c(c3)OCO4)CC2C(=O)NCCC(C)C)cc(OC)c1OC (stereo not given) | 738 |
| CCn1ccc2sc(C)c(C(=O)N3CCN(c4ccccc4)CC3)c2c1=O | 773 |
| Cc1ccc(NC(=O)Cn2ncc3c(c2=O)N(CC2CC2)C(=O)CS3)c(Cl)c1 | 846 |
| O=C(NC1CCCCC1)C1CCN(S(=O)(=O)c2cc(-c3noc(C4CCC4)n3)cs2)CC1 | 1070 |
| COCCNC(=O)NCCn1c(-c2ccc(C)cc2)nc2ccccc21 | 588 |
| CCCNC(=O)c1ccc(-c2ccnc(N3CCCCC3)n2)cc1 | 905 |
| CCN(CCN(C)C)C(=O)CN1C(=O)C(Oc2ccc(F)cc2)C12CCCCC2 (stereo not given) | 724 |
| Cc1nc(-c2cccc(NC(=O)c3cccc(F)c3)c2)cs1 | 856 |
| CCc1cccc(NS(=O)(=O)c2cc3n(c2)CCN(CCOC)C3=O)c1 | 750 |
| COc1ccc(-c2nc3ncccn3c2Nc2ccc(C)c(Cl)c2)cc1 | 821 |
| Oc1ccc2c3c1O[C@H]1c4oc5ccccc5c4C[C@@]4(O)[C@@H](C2)N(CC2CC2)CC[C@]314 | 673 |
| Cc1ccc(NC(=O)Cn2nc(N3CCOCC3)c3ccccc3c2=O)cc1F | 836 |
| Cc1cc(C)c(CN2CCC3(CC2)CC3c2noc(C)n2)c(C)c1 (stereo not given) | 655 |
| O=C(NC1(c2nc(-c3ccncc3)no2)CCCCC1)C1CCCC1 | 861 |
| O=C(c1csc(S(=O)(=O)N2CCC(C(=O)N3CCCCCC3)CC2)c1)N1CCCCCC1 | 876 |
| Cc1cc(C)cc(NC(=O)c2c(C)oc3nc(C)nc(N4CCOCC4)c23)c1 | 888 |

| Structure (SMILES) | RP-LC retention time [s] |
| --- | --- |
| O=C(Nc1ccc(F)cc1)N1CCC(n2c(-c3ccco3)nc3cccnc32)C1 (stereo not given) | 749 |
| N#Cc1ccc(C(=O)N2CCN(c3cc(-c4ccc(F)cc4)[nH]n3)CC2)cc1 | 767 |
| CC1=C(c2ccc(C)c(C)c2)S(=O)(=O)N=C1N1CCCN(C(=O)C2CCCC2)CC1 | 912 |
| Cc1ccc(C)c(CN2CCC(CNC(=O)C3CCCN(c4cc(=O)n(C)c(=O)n4C)C3)CC2)c1 (stereo not given) | 599 |
| O=C(Cn1cc(-c2nc(-c3ccc(Cl)cc3)no2)ccc1=O)NC1CCCC1 | 928 |
| Cc1cc2c(cc1S(=O)(=O)N1CCCC1C(=O)N1CCOCC1)OC(C)C(=O)N2 (stereo not given) | 638 |
| O=C(c1ccncc1)N1CCC2(CC1)N=C(c1ccc(Cl)cc1)NO2 | 625 |
| O=C(CN1CCN(Cc2ccccc2F)C1=O)N1CCN(C2CCCCC2)CC1 | 613 |
| O=C1Nc2cc(C(=O)N3CCN(c4cccc(Cl)c4)CC3)ccc2N2CCCCC12 (stereo not given) | 975 |
| CC(C)(C)C(=O)N1CCOC(c2ccccc2)C1 (stereo not given) | 831 |
| CCCS(=O)(=O)N1CCC2(CC1)CC(OCc1ccccc1)CCO2 (stereo not given) | 984 |
| COc1cccc(CNC(=O)C2=C3CCCN3c3ccccc3S2(=O)=O)c1 | 811 |
| COc1ccc(Cc2nc(-c3cccc(-c4ccnn4C)c3)no2)cc1OC | 904 |
| Cn1cc2c3c(cccc31)CN(C(=O)c1cc(F)ccc1Cl)CC2 | 938 |
| O=C(NCCn1cnc2cc(C(=O)N3CCCC3)ccc21)Nc1ccc(Br)cc1F | 639 |
| CCNC(=O)c1nc(Nc2ccc(CC)cc2)c2ccccc2n1 | 756 |
| O=C(NCCc1noc(C2CC2)n1)c1cccs1 | 700 |
| CCN(CC)S(=O)(=O)c1ccc(Cl)c(-c2nnc(-c3ccccc3)o2)c1 | 1120 |
| O=C(C1=NN(Cc2ccc(F)cc2)c2ccccc2S1(=O)=O)N1CCCCC1 | 885 |
| O=C(Nc1ccc(N2CCN(C3CCCC3)C2=O)nc1)c1ccncc1 | 635 |
| Cc1sc(C)c(S(=O)(=O)Nc2ccc(F)cc2)c1-c1cc(C(F)(F)F)on1 | 1140 |
| Cc1ccc(N(Cc2ccccc2)S(=O)(=O)c2ccc3nnc(C)n3c2)cc1 | 884 |
| CNS(=O)(=O)c1cccnc1Nc1ccc(F)cc1 | 863 |

| Structure (SMILES) | RP-LC retention time [s] |
| --- | --- |
| CCCn1ncc(N2CCC(C(=O)NCCCOC(C)C)CC2)cc1=O | 650 |
| Cc1noc2nc(C)n(CC(=O)NCc3cccc(Br)c3)c(=O)c12 | 805 |
| Cc1cc(NCc2ccccn2)nc(-n2cc([N+](=O)[O-])cn2)n1 | 564 |
| NS(=O)(=O)c1ccc(CCNC(=O)c2ccc(-n3cnnn3)cc2)cc1 | 622 |
| CCN(C(=O)Cc1csc2nc(-c3ccccc3)cn12)c1ccccc1 | 852 |
| CCn1cc(-c2nc(C)c(C(=O)NCc3cc(F)cc(F)c3)s2)c2cccnc21 | 884 |
| COc1ccc(-c2nc3cnccn3c2Nc2ccc(OC)c(OC)c2)cc1 | 690 |
| Cc1ccc(CNS(=O)(=O)c2cc(-c3nc(C(C)(C)C)cs3)cs2)cc1 | 1320 |
| CN1CCN(S(=O)(=O)c2ccc(C3CCCCC3)cc2)CC1 | 616 |
| CCCn1cc(-c2ccncc2)cc1C(=O)Nc1ccc2c(c1)OCCO2 | 679 |
| CC1C(=O)NCCN1C(=O)c1ccc(Oc2ccccc2)cc1 (stereo not given) | 670 |
| COCCN1C(=O)c2cccn2CC1CNS(=O)(=O)c1ccc2c(c1)C(C)(C)C(=O)N2 (stereo not given) | 652 |
| Cc1ccc(NC(=O)Cn2c(C)nc3cc4c(cc32)OCCO4)cc1C | 678 |
| Cc1cc(NC(=O)Cn2cnc3c(oc4ccccc43)c2=O)no1 | 668 |
| Cc1nc2c(sc3nc(-c4ccccc4)ccc32)c(=O)n1CC(=O)Nc1cccc(C(F)(F)F)c1 | 1160 |
| Fc1ccc(-c2ccc(CNCc3ccccn3)o2)cc1 | 655 |
| Cc1nc2cc(-c3noc(Cc4ccc(Br)cc4)n3)ccc2n(C)c1=O | 1020 |
| O=C(c1ccc2c(c1)nnn2CCN1CCOCC1)N1CCN(c2ccccc2)CC1 | 616 |
| COc1ccc(NC(=O)Cn2nc3nc(Nc4ccc(F)cc4)ccn3c2=O)cc1Cl | 718 |
| N#Cc1ccc(-c2cnc3[nH]cc(NC(=O)c4cccnc4)c3c2)cc1 | 738 |
| Cc1ccc(S(=O)(=O)N2CCCC(C(=O)Nc3nnc(Cc4cccs4)o3)C2)cc1 (stereo not given) | 810 |
| Cc1cc(N2CCOCC2)n2nc(CN3CCN(c4ccccc4C)CC3)nc2n1 | 636 |
| Cc1c(F)cccc1NC(=O)N1CCC(n2cnnc2C2CC2)C1 (stereo not given) | 655 |

| Structure (SMILES) | RP-LC retention time [s] |
| --- | --- |
| COc1ccc2c(c1)C1(CCN(C(=O)Nc3ccccc3OC)C1)C(=O)N2C (stereo not given) | 808 |
| CC(C)(C)CC(=O)N1CCN(c2nc(CN3CCOCC3)cs2)CC1 | 611 |
| CCOc1ccc(N2CCCCn3c2nc2c3c(=O)n(CCOC)c(=O)n2C)cc1 | 853 |
| Cc1ccc(Nc2c(-c3ccc(N(C)C)cc3)nc3cnccn23)c(C)c1 | 962 |
| COc1ccc(Cc2nc(-c3cccc(-c4ccn[nH]4)c3)no2)cc1 | 911 |
| CC(C)NC(=O)c1n[nH]c2c1CCCCCC2 | 754 |
| O=C(Cc1ccc(F)cc1)Nc1ccc(-c2ccc3nncn3n2)cc1 | 676 |
| O=C(NCc1cccc(Br)c1)C1CCCN(C(=O)C2Sc3ccccc3NC2=O)C1 (stereo not given) | 800 |
| O=c1oc2cc(O)c(Cl)cc2c2c1CCC2 | 794 |
| COC(=O)C(C)Oc1cc(O)c2c(=O)cc(-c3ccccc3)oc2c1 (stereo not given) | 1060 |
| CCCCCNC(=O)c1ccc2c(c1)CCCN2S(C)(=O)=O | 846 |
| N#CC1(C(=O)NCCOc2ccc(F)cc2)CC1 | 728 |
| Cc1ccc(-n2cc3c(N4CCCC(C(=O)NCc5ccc(N(C)C)cc5)C4)ncnc3n2)cc1 (stereo not given) | 600 |
| COc1ccc2c(c1)CCc1c-2n[nH]c1C(=O)N1CCN(c2cc(=O)n(C)c(=O)n2C)CC1 | 659 |
| CCOC(=O)CNC(=O)NCCc1nc2cccnc2n1-c1ccccc1 | 608 |
| Cc1nc(-c2cc(S(=O)(=O)N3CCC(C(=O)NC4CCCCCCC4)CC3)c(C)s2)no1 | 1070 |
| O=C(NCCCN1CCCC1)C1CN(C(=O)c2ccccc2)CC12CCCCC2 (stereo not given) | 611 |
| O=c1n(CCc2ccccc2)nc2ccc(S(=O)(=O)N3CCCC3)cn12 | 868 |
| Cc1ccc(-c2csc(NC(=O)Cc3csc(C)n3)n2)cc1 | 930 |
| CCSCCOC(=O)C1=C(C)NC2=C(C(=O)C(C(=O)OC)C(C)C2)C1c1cccc(OC)c1 (stereo not given) | 968 |
| CC1(C(=O)N2CC=C(c3ccccc3)CC2)CCCCC(=O)N1 (stereo not given) | 736 |
